Like-named read-outs stand apart in the source and are kept apart here.

This note sets out measurements from paper doi:10.1101/2024.08.13.607785v1 (biorxiv, 2024).

Test in all cases: biochemical
What all share (parameters): species or system human cell line lysate

Experiment [1] deals with Inhibitor of nuclear factor kappa-B kinase subunit epsilon ; IKBKE ; Q14164 (Homo sapiens, UniProt Q14164).
Experiment [2] deals with Deoxycytidine kinase ; DCK ; P27707 (Homo sapiens, UniProt P27707).
For experiment [3], the target named is Serine/threonine-protein kinase N1 ; PKN1 ; Q16512 (Homo sapiens, UniProt Q16512).
The target of experiment [4] is Inositol polyphosphate multikinase ; IPMK ; Q8NFU5 (Homo sapiens, UniProt Q8NFU5).
Experiment [5] addresses 1-phosphatidylinositol 3-phosphate 5-kinase ; PIKFYVE ; Q9Y2I7 (Homo sapiens, UniProt Q9Y2I7).
The target of experiment [6] is Phosphatidylinositol 4-kinase alpha ; PI4KA ; P42356 (Homo sapiens, UniProt P42356).
In experiment [7] the target is Serine/threonine-protein kinase RIO1 ; RIOK1 ; Q9BRS2 (Homo sapiens, UniProt Q9BRS2).
Experiment [8] deals with Adenylate kinase isoenzyme 6 ; AK6 ; Q9Y3D8 (Homo sapiens, UniProt Q9Y3D8).
The target of experiment [9] is Dual specificity testis-specific protein kinase 1 ; TESK1 ; Q15569 (Homo sapiens, UniProt Q15569).
Experiment [10] concerns the target Mitogen-activated protein kinase 3 ; MAPK3 ; P27361 (Homo sapiens, UniProt P27361).
Experiment [11] deals with AP2-associated protein kinase 1 ; AAK1 ; Q2M2I8 (Homo sapiens, UniProt Q2M2I8).
The target of experiment [12] is Serine/threonine-protein kinase N3 ; PKN3 ; Q6P5Z2 (Homo sapiens, UniProt Q6P5Z2).
The target of experiment [13] is Mitogen-activated protein kinase 10 ; MAPK10 ; P53779 (Homo sapiens, UniProt P53779).
Experiment [14] has as its target Beta-adrenergic receptor kinase 2 ; GRK3 ; P35626 (Homo sapiens, UniProt P35626).
Experiment [15] deals with Casein kinase I isoform gamma-2 ; CSNK1G2 ; P78368 (Homo sapiens, UniProt P78368).
Experiment [16] concerns the target T1, Tyrosine-protein kinase Tec ; TEC ; P42680 (Homo sapiens, UniProt P42680).
T1 sequence (P42680 1-631): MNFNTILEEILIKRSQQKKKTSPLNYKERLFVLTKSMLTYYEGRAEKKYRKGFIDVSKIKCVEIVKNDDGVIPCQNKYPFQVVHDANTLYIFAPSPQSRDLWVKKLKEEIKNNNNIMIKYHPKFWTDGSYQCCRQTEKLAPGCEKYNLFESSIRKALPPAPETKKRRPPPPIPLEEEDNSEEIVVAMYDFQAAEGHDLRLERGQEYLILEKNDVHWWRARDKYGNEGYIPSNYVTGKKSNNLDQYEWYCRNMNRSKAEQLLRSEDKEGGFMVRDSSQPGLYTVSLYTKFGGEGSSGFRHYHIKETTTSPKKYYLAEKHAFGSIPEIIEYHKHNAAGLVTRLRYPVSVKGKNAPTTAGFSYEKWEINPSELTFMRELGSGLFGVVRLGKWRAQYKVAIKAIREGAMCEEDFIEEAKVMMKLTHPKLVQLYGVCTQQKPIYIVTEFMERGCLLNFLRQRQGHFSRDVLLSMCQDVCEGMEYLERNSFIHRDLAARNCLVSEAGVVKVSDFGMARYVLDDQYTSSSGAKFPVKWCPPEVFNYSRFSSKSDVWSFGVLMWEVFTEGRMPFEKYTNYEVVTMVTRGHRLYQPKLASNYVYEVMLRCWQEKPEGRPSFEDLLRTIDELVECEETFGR

The target of experiment [17] is cAMP-dependent protein kinase catalytic subunit PRKX ; PRKX ; P51817 (Homo sapiens, UniProt P51817).
The target of experiment [18] is Tyrosine-protein kinase Lyn ; LYN ; P07948 (Homo sapiens, UniProt P07948).
Setting [19] is: read-out: BAY-1143572 (10 µM) / %Intensity relative to DMSO.
Setting [20] is: read-out: BAY-1251152 (10 µM) / %Intensity relative to DMSO.

Sequence of Inositol polyphosphate multikinase ; IPMK ; Q8NFU5 (Q8NFU5 whole entry): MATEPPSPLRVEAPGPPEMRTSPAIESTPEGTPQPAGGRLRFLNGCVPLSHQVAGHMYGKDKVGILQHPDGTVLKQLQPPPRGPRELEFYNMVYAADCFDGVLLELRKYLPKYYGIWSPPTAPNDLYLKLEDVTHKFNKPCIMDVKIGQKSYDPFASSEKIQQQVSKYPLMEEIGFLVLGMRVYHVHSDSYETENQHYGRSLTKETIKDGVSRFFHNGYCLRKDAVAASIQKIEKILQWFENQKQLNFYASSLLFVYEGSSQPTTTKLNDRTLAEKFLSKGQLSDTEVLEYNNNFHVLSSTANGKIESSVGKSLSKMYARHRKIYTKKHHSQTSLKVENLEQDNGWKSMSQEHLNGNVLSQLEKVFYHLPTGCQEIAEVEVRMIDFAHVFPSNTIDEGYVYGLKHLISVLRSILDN
Sequence of cAMP-dependent protein kinase catalytic subunit PRKX ; PRKX ; P51817 (P51817 whole entry, one chain of several): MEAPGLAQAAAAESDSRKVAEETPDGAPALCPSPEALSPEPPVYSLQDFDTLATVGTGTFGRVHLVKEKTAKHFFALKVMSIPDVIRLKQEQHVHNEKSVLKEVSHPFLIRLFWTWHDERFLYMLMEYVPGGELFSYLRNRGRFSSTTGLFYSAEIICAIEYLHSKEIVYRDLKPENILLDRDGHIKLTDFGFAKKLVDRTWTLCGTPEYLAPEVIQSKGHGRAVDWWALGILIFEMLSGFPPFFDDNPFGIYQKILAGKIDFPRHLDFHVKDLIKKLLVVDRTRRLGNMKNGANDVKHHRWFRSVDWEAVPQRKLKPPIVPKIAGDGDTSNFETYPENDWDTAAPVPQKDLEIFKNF
Sequence of Inhibitor of nuclear factor kappa-B kinase subunit epsilon ; IKBKE ; Q14164 (Q14164 whole entry, one chain of several): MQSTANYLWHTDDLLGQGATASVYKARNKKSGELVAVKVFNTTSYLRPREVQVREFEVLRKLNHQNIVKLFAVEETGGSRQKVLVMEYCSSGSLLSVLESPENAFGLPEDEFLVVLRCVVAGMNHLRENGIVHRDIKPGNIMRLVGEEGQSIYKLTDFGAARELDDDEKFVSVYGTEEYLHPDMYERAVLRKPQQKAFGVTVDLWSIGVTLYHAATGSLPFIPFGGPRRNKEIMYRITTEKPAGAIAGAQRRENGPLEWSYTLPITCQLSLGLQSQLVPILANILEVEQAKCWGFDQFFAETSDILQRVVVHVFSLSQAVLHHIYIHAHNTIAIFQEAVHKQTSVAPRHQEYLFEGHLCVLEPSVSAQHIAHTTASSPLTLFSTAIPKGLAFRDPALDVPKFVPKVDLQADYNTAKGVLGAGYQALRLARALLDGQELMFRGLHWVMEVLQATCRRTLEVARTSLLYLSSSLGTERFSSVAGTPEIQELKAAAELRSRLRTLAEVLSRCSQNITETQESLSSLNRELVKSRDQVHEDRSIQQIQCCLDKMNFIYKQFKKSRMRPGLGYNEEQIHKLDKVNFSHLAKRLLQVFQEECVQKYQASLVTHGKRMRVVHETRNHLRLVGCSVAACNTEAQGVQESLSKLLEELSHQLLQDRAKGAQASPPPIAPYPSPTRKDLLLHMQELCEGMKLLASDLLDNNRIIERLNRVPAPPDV
Sequence of Casein kinase I isoform gamma-2 ; CSNK1G2 ; P78368 (P78368 whole entry, canonical isoform): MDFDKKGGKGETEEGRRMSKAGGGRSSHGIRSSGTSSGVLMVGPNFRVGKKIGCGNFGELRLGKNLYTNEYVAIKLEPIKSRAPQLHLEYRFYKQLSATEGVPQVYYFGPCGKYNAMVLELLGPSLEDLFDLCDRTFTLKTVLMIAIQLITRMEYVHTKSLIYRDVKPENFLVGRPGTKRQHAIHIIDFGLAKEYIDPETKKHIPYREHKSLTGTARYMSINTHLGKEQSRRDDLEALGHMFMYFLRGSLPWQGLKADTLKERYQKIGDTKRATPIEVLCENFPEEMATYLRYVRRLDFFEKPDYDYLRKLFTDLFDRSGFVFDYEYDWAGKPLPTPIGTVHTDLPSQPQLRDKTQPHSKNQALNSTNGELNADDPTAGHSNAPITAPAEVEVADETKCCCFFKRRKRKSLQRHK
Sequence of Serine/threonine-protein kinase RIO1 ; RIOK1 ; Q9BRS2 (Q9BRS2 whole entry, one chain of several): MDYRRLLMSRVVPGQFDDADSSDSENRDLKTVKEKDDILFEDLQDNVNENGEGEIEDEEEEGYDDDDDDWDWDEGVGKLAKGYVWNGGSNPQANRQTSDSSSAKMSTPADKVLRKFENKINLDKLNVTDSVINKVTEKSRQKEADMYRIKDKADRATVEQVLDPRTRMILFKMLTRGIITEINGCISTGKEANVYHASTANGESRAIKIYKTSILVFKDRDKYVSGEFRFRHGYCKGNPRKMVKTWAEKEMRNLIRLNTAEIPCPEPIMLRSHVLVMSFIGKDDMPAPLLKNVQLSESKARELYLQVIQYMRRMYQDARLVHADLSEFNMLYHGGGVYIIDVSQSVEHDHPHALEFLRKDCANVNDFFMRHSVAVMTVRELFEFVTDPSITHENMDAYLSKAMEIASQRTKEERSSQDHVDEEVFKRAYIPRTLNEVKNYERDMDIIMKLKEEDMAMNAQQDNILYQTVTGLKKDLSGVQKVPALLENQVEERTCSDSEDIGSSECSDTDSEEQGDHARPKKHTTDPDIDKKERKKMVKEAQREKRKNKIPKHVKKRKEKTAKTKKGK
Sequence of Beta-adrenergic receptor kinase 2 ; GRK3 ; P35626 (P35626 whole entry, canonical isoform): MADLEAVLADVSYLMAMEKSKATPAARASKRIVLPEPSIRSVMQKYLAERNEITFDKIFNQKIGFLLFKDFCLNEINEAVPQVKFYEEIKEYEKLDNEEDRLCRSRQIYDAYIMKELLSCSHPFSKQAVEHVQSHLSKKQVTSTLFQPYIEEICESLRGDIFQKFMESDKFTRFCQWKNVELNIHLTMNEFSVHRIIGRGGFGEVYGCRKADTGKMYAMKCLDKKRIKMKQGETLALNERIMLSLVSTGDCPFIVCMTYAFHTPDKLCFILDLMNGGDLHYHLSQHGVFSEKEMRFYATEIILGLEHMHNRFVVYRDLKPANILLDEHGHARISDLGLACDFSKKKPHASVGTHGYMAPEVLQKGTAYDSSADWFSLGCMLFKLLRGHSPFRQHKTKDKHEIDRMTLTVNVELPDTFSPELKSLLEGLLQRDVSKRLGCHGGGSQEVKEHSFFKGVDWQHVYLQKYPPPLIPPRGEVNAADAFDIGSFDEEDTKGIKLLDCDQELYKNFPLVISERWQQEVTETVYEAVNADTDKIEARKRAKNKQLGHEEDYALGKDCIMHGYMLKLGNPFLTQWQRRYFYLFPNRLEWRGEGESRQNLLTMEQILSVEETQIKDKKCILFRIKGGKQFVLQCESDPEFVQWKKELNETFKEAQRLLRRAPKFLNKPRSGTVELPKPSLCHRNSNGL
Sequence of Tyrosine-protein kinase Lyn ; LYN ; P07948 (P07948 whole entry): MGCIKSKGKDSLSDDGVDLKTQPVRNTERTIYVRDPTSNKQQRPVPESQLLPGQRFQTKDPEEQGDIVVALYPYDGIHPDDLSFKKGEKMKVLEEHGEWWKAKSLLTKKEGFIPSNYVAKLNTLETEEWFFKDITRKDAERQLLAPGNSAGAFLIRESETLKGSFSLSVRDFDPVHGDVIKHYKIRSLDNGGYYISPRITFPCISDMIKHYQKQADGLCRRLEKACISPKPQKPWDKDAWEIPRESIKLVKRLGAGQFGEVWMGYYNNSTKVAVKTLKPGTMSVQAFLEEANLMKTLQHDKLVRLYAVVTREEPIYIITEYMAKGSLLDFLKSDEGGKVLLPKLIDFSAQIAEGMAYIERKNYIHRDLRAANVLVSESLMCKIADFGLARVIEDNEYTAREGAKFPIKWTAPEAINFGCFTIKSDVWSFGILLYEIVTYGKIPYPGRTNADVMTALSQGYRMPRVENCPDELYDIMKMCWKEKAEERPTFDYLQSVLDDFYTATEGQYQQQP
Sequence of Adenylate kinase isoenzyme 6 ; AK6 ; Q9Y3D8 (Q9Y3D8 whole entry): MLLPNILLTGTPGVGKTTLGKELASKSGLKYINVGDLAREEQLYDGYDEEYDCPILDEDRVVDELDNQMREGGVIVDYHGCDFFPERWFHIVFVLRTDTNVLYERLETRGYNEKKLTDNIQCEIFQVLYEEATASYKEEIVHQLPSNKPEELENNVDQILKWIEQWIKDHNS
Sequence of Mitogen-activated protein kinase 10 ; MAPK10 ; P53779 (P53779 whole entry): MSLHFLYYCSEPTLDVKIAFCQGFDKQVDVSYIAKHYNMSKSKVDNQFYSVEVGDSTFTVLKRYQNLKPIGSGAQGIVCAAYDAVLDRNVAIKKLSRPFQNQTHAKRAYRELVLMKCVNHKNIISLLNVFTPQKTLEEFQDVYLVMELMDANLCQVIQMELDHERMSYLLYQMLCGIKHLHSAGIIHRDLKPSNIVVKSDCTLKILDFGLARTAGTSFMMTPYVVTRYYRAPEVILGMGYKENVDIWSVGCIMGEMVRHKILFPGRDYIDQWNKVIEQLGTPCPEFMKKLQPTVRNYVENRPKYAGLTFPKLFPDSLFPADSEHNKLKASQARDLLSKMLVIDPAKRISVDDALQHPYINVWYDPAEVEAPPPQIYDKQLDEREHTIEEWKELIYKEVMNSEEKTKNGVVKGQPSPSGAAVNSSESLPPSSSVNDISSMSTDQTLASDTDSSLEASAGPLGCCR
Sequence of Deoxycytidine kinase ; DCK ; P27707 (P27707 whole entry): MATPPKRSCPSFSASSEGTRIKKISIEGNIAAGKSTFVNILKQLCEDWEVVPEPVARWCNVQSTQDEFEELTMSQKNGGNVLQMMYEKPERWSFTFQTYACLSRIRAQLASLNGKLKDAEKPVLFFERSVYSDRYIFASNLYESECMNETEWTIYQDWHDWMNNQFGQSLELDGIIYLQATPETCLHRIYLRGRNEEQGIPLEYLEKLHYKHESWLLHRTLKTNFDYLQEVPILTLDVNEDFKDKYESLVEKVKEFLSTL
Sequence of Mitogen-activated protein kinase 3 ; MAPK3 ; P27361 (P27361 whole entry): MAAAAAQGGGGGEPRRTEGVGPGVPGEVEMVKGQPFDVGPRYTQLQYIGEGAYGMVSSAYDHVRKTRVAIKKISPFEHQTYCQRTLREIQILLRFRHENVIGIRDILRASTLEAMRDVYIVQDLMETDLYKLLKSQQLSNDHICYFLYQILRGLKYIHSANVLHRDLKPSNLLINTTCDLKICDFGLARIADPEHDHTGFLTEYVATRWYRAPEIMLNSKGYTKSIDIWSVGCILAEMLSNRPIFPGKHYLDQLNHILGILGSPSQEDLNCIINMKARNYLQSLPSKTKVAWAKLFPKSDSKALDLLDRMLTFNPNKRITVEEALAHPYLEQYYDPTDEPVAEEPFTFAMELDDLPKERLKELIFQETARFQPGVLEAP

Regarding `COc1cc(F)ccc1-c1ncnc(Nc2cccc(C[S@](C)(=N)=O)c2)n1` [BAY-1143572], the remaining activity at 10 µM in experiment [1] (setting [19]) worked out at 110%; in experiment [2] (setting [19]) it was 121%; in experiment [3] (setting [19]), 156%; in [4] (setting [19]) it was 107%; in experiment [5] (setting [19]), 94.3%; in [6] (setting [19]), 96.8%. In addition, the remaining activity at 10 µM turned out to be 106% in experiment [7] (setting [19]); 34.2% in experiment [8] (setting [19]); 109% in [9] (setting [19]); 104% in experiment [10] (setting [19]); 80.2% in [11] (setting [19]); 121% in experiment [12] (setting [19]). Further, the remaining activity at 10 µM in experiment [13] (setting [19]) was 119%; in [14] (setting [19]), 88.8%; in experiment [15] (setting [19]) it was 137%; in [16] (setting [19]) it was 89.2%; in experiment [17] (setting [19]) it was 152%; in [18] (setting [19]), 82%.

`COc1cc(F)ccc1-c1cc(Nc2cc(CS(C)(=N)=O)ccn2)ncc1F` (stereo not drawn) [BAY-1251152]: the remaining activity at 10 µM was 112% in [1] (setting [20]); 108% in [2] (setting [20]); 137% in experiment [3] (setting [20]); 96.1% in [4] (setting [20]); 102% in experiment [5] (setting [20]); 100% in experiment [6] (setting [20]). Further, the remaining activity at 10 µM in [7] (setting [20]) came to 96.7%; in [8] (setting [20]), 47.6%; in [9] (setting [20]), 104%; in experiment [10] (setting [20]), 96.8%; in [11] (setting [20]), 87.9%; in experiment [12] (setting [20]) it was 114%. The remaining activity at 10 µM in [13] (setting [20]) came to 108%; in experiment [14] (setting [20]) it was 83.7%; in experiment [15] (setting [20]), 131%; in experiment [16] (setting [20]) it was 104%; in experiment [17] (setting [20]), 140%; in experiment [18] (setting [20]) it was 79.4%.
